# Values quoted from earlier work, collected in patent US10744110B2, “Methods of treating lung cancer” (Abraxis BioScience, LLC, priority 2013, dated 2020).
# Tested on: NSCLC
# Settings: single agent
smiles,measurement,value
CCC1=C[C@@H]2CN(C1)Cc1c([nH]c3ccccc13)[C@@](C(=O)OC)(c1cc3c(cc1OC)N(C)[C@H]1[C@@](O)(C(=O)OC)[C@H](OC(C)=O)[C@]4(CC)C=CCN5CC[C@]31[C@@H]54)C2 [vinorelbine],response rate (RR),29.4%
